PMC8657848, “Developmental Toxicity and Biotransformation of Two Anti-Epileptics in Zebrafish Embryos and Early Larvae” (International Journal of Molecular Sciences, 2021)

Legend:
[1] = Quantification of compound in stock and culture medium relative to nominal concentration (LC-MS); format: physicochemical; conditions: for Percentage of quantified compound concentration relatively to the nominal concentration: CBZ–E-CBZ
Description: The control and test mediums were also kept in the same incubator until the last time point of the experiment. The embryo media were renewed every 48 h, to avoid medium acidification and oxygen deprivation. At each medium change and at the last time point of the experiment (Figure 9), the media exposed to the embryos were pooled and kept at −80 °C for further use (n = 3). Moreover, samples from the stock solutions kept at 28.5 °C ± 0.3 °C were also taken at 0 and 120 hpf (n = 3), whereas samples were only taken at 96 hpf for the metabolites medium (E-CBZ and HPPH).

[2] = design: method as in PMID 20832863; conditions: after 70.5 h of exposure (time point 72 hpf); cited from earlier work
zebrafish embryos/larvae = test: Quantification of metabolites E-CBZ and HPPH in pooled culture medium exposed to zebrafish embryos/larvae; format: in vivo, Danio rerio; conditions: 250 µM CBZ
Description: The control and test mediums were also kept in the same incubator until the last time point of the experiment. The embryo media were renewed every 48 h, to avoid medium acidification and oxygen deprivation. At each medium change and at the last time point of the experiment (Figure 9), the media exposed to the embryos were pooled and kept at −80 °C for further use (n = 3).

[3] = Microsomal incubation with CBZ and PHE, supersomes (negative control); format: in vitro ADME; conditions: data not shown
Description: Moreover, positive and negative controls were included: pooled human liver microsomes (Gibco™, HMMCPL–PL050B, Thermo Fisher Scientific) and Insect Cell Control Supersomes™ (lot number: PL050 C-B, 456201, Corning Incorporated, Corning, NY, USA), respectively. Based on Oziolor et al., microsomal reactions were initiated after adding the substrate solution at a concentration of 100 µM (see Supplementary Table S1) in a mixture of 100 mM K3PO4 buffer (Corning® Gentest™, NY, USA) of pH 7.4, 5% and 1% of NADPH regenerating system reagents A and B, respectively (Corning, Woburn, MA, USA) and 200 µg/mL of microsomal protein, for a total volume of 500 µL. The reactions were performed at 28.5 ± 0.3 °C until the time point of interest. […] The reactions were stopped at two time points (5 and 240 min) by sampling 40 µL, in duplicate, of the main microsomal reaction and mixed with 120 µL cold (4 °C) acetonitrile (ACN) (Merck, Darmstadt, Germany) already containing the internal standard (IS), LAMO. The samples were then centrifuged for 10 min at 10,000× g to precipitate the proteins, which were denatured in cold ACN.

## NC(=O)N1c2ccccc2C=Cc2ccccc21 [CBZ, carbamazepine]
[1]; Culture medium exposed to embryos/larvae, nominal 31.25 µM, 48 hpf
  Percentage of quantified compound concentration relatively to the nominal concentration: 95.4 ± 16.2%
[1]; Culture medium, nominal 31.25 µM, 96 hpf
  Percentage of quantified compound concentration relatively to the nominal concentration: 101.2 ± 21.7%
[1]; Culture medium, nominal 31.25 µM, 120 hpf
  Percentage of quantified compound concentration relatively to the nominal concentration: 109.6 ± 5.4%
[1]; Culture medium, nominal 85 µM, 48 hpf
  Percentage of quantified compound concentration relatively to the nominal concentration: 110.0 ± 4.8%
[1]; Culture medium, nominal 85 µM, 96 hpf
  Percentage of quantified compound concentration relatively to the nominal concentration: 116.8 ± 4.7%
[1]; Culture medium, nominal 85 µM, 120 hpf
  Percentage of quantified compound concentration relatively to the nominal concentration: 113.9 ± 4.5%
[1]; Culture medium, nominal 250 µM, 48 hpf
  Percentage of quantified compound concentration relatively to the nominal concentration: 113.4 ± 14.1%
[1]; Culture medium, nominal 250 µM, 96 hpf
  Percentage of quantified compound concentration relatively to the nominal concentration: 114.2 ± 2.6%
[1]; Culture medium, nominal 250 µM, 120 hpf
  Percentage of quantified compound concentration relatively to the nominal concentration: 111.5 ± 2.6%
[1]; Stock, nominal 31.25 µM, 0 hpf, average of three replicates
  Percentage of quantified compound concentration relatively to the nominal concentration: 95.6 ± 2.0%
[1]; Stock, nominal 31.25 µM, 120 hpf
  Percentage of quantified compound concentration relatively to the nominal concentration: 101.6 ± 7.7%
[1]; Stock, nominal 85 µM, 0 hpf
  Percentage of quantified compound concentration relatively to the nominal concentration: 81.7 ± 18.7%
[1]; Stock, nominal 85 µM, 120 hpf
  Percentage of quantified compound concentration relatively to the nominal concentration: 90.4 ± 6.6%
[1]; Stock, nominal 250 µM, 0 hpf
  Percentage of quantified compound concentration relatively to the nominal concentration: 92.1 ± 5.3%
[1]; Stock, nominal 250 µM, 120 hpf
  Percentage of quantified compound concentration relatively to the nominal concentration: 98.4 ± 4.6%
[2]
  Average quantified concentration higher than the nominal concentration: 22.3%
Zebrafish embryos/larvae
  Increase of E-CBZ in culture medium between 96 and 120 hpf: six-fold

## O=C1NC(=O)C(c2ccccc2)(c2ccccc2)N1 [PHE, phenytoin]
[1]; 31.25 µM, stable over time
  Quantified concentration in culture medium lower than the nominal concentration: 20%
[1]; 85 µM, culture medium at 96 and 120 hpf and stock medium at 120 hpf
  Quantified concentration lower than the nominal concentration: around 35%
[1]; 85 µM, stock medium at 0 hpf and culture medium at 48 hpf
  Quantified concentration lower than the expected concentration: around 20%
[1]; 250 µM, stock and culture medium, all time points
  Quantified concentration as percentage of the nominal concentration: ≤ 45%
[1]; visually observed in the stock medium for 85 and 250 µM
  Dissolution / precipitation in EMS: did not dissolve properly in the EMS and/or precipitated in EMS
[3]
  Decrease of parent compound after 240 min (pilot investigation): No decrease
